Data taken from patent US20160038518A1, “METHODS FOR TREATING PSORIASIS AND VASCULAR INFLAMMATION” (VASCULAR BIOGENICS LTD., priority 2012, published 2016).

Experiments:
humans = assay: tolerability of daily dose in human clinical studies; type: in vivo
[1] = tested on: LPS and Pam3CSK4 signaling; assay: LPS and Pam3CSK4 signaling in human monocytes; type: cell-based; settings: FIG. 1B
[2] = tested on: vascular inflammation of carotid arteries and ascending aorta in patients with moderate to severe plaque psoriasis; assay: 18-FDG PET/CT sub-study of phase 2 trial: vascular inflammation as target to background ratio (TBR); type: in vivo, human; settings: 12 weeks
Source text: This study was a sub-study of the above phase 2, randomized, double-blind, multicenter trial, of patients (aged 18-75) with moderate to severe plaque psoriasis, see also infra at Example 3. […] In addition, patients enrolled into the sub-study had to have the presence or history of one of the following: non-insulin dependent diabetes mellitus (NIDDM), peripheral vascular disease (PVD), smoker, hypertension, ischemic heart disease or cerebrovascular disease; obesity (BMI ≧25), hypercholesterolemia (LDL>160 mg/dL or taking anti-hyperlipidemia treatment), or family history of ischemic heart disease (in brother or father before age 55, in sister or mother before age 65) or at least 40 years of age with a history of psoriasis for at least 7 years. Patients were randomly assigned (1:1:1) to receive VB-201 20 mg, VB-201 80 mg or placebo for 12 weeks. The primary endpoint was the maximum TBR in the most diseased segment (MDS) of an index vessel at 12 weeks (percent change from baseline). The effect of treatment with 20 mg per day and 80 mg per day VB-201 on carotid arteries and ascending aorta inflammation was examined. Inflammation was measured by positron emission computed tomography (PET-CT) to quantify 18-fluorodeoxyglucose (18-FDG) uptake as a target to background ratio (TBR).
[…] imaging was performed following an overnight fast using a PET-CT scanner system with CT attenuation correction. 18-FDG was administered intravenously at a dose of 370 MBq and PET images were acquired approximately 90 minutes after injection. Baseline scans were evaluated and all inflammatory plaques in the left and right carotid arteries and ascending aorta were identified and totaled for each treatment group. PET scans were performed at Harvard Medical School and Massachusetts General Hospital, Boston, Mass., USA and at Translational and Molecular Imaging Institute and Department of Radiology, Mount Sinai School of Medicine, New York, N.Y., USA. All scans were analyzed by a central reader at the Mount Sinai center in New York City. The TBR was calculated from the ratio of the standard uptake values (SUV) of the target compared to background venous activity:
TBR (Target Background Ratio)=Target activity SUVTarget/SUV Background Venous Activity
The baseline and 12-week PET/CT datasets for each patient were structurally co-registered with each other, and FDG uptake was compared across each patient's images within pre-defined sections of the target vessels. For the aorta, measurements were made every 3 mm, starting 1 cm above the aortic valve annulus, continuing to the bottom of the aortic arch. For the right and left carotids, measurements were made every 3 mm, starting at the level of the carotid artery bifurcation, and continuing inferiorly 4 cm into the common carotid artery. Measurements were made in the axial plane by drawing a region of interest (ROI) around the artery wall and the maximum standardized uptake value (SUV) was recorded as the time- and dose-corrected tissue radioactivity divided by body weight. This represented the values for the target tissue. For the carotid arteries, the SUV Mean from the lumen of the jugular vein was used in at least 10 consecutive slices (at least 5 on each side). For the aorta, the background SUVMean from the atrium or SVC was used in at least 10 consecutive slices.
All statistical tests were two-sided with a significance level of 5%, unless specified otherwise, and were performed using SASS Version 9.2. Data was summarized using descriptive statistics (number of patients [N], mean, standard deviation [SD], median, minimum, and maximum).
Subjects were scanned by PET-CT to determine baseline 18-FDG uptake, and those with a TBR of at least 1.6 in either the carotid artery or the ascending aorta were selected. After screening and establishment of a baseline, eligible subjects were randomly assigned to receive 20 mg per day VB-201, 80 mg per day VB-201 or a daily placebo, for a period of 12 weeks. […]

[3] = 80 mg group, patients not taking concomitant statins
[4] = patients taking statins (6 on 20 mg and 6 on 80 mg), p=0.01

Question: Which gastrointestinal events (humans; higher dose (e.g., 160 mg/day) in multiple sub-doses e.g. 12 hours apart, each about 80 mg or less) does the source give for `CCCCCCCCCCCCCCCCOC[C@H](COP(=O)([O-])OCC[N+](C)(C)C)OCCCCC(=O)O` [VB-201, 1-hexadecyl-2-(4′-carboxy)butyl-sn-glycero-3-phosphocholine] here?
Answer: The gastrointestinal events was “largely avoided”.

Question: And the tolerability (humans; humans, single daily dose)?
Answer: Its tolerability is “well tolerated up to a dose of about 80 mg/day”.

Question: And the “gastrointestinal events (G-I intolerance, mainly nausea and vomiting)” value (humans; larger doses (e.g., 160 mg/day) as a single daily dose)?
Answer: The value was “associated with certain gastrointestinal events”.

Question: What about the “inhibition of LPS and Pam3CSK4 signaling” value [1] of the same compound?
Answer: Its value is “inhibition of LPS and Pam3CSK4 signaling”.

Question: And the “change from baseline in 18-FDG-PET MDS TBR of the index vessel” value ([2]; 20 mg/day, p=0.14)?
Answer: The value was −7.3%.

Question: And the “mean change from baseline of the maximum TBR in the MDS in the index vessel” value [2, 3]?
Answer: The value was −0.39.

Question: And the “percent change from baseline of the maximum TBR in the MDS in the index vessel” value [2, 3]?
Answer: Its value is −8.84%.

Question: What about the “change from baseline in 18-FDG-PET MDS TBR of the index vessel” value ([2]; 80 mg/day, p=0.04) of the same compound?
Answer: The value was −12.7%.

Question: And the “dose response of TBR change across quartiles of VB-201 trough blood levels” value ([2]; p=0.037, FIG. 5)?
Answer: Its value is “A dose response was seen”.

Question: And the “reduction from baseline in vascular inflammation based on PET-CT measure” value ([2]; VB-201 80 mg group, p=0.04)?
Answer: Its value is 12.7%.

Question: And the “reduction from baseline in vascular inflammation based on PET-CT measure” value ([2]; combined VB-201 treated group, p=0.01)?
Answer: The value was 9.8%.

Question: And the “inflammation of the ascending aorta (18-FDG uptake)” value ([2]; one patient with breast implants, 20 mg/day, FIG. 6)?
Answer: Its value is “inflammation of the aorta in the patient was also reduced”.

Question: What about the “mean change from baseline of the maximum TBR in the MDS in the index vessel” value [2, 4] of the same compound?
Answer: Its value is −0.74.

Question: What about the “percent change from baseline of the maximum TBR in the MDS in the index vessel” value [2, 4] of the same compound?
Answer: Its value is −18.48%.
